# Values of other authors in US11633460B2, “Injectable solution at pH 7 comprising at least one basal insulin wherein the pI is comprised from 5.8 to 8.5 and a co-polyamino acid bearing carboxylate charges and hydrophobic radicals” (ADOCIA, priority 2017, dated 2023).
# Details: patients, background statement
substance,measurement,value
insulin glargine,Period over which the hypoglycemic effect is quasi-constant,24 h
